Test results taken from patent US8883737B2, “Methods of treating cancer” (Endocyte, Inc., priority 2010, dated 2014).
Several values for one entry are separate records, joined by “and”; a condition that tells them apart may be missing. Identical values can stand only once. Like-named read-outs stand apart in the source and are kept apart here.

Legend:
KB tumors = experiment: In vivo antitumor experiments, s.c. KB tumors; design: species or system nu/nu mice
Procedure: (§1) Four to six week-old female nu/nu mice (Charles River, Wilmington, Mass.) or six to seven week-old female Balb/c mice (Harlan Sprague Dawley, Inc., Indianapolis, Ind.) or four to six week-old female DBA mice (Harlan Sprague Dawley, Inc., Indianapolis, Ind.) were maintained on a standard 12 h light-dark cycle and fed ad libitum with folate-deficient chow (Harlan diet #TD00434, Harlan Teklad, Madison, Wis.) for the duration of the experiment. FR-positive human nasopharyngeal KB cells, human ovarian IGR-OV1 cells, human ovarian OV90 cells and syngeneic mouse lymphocytic leukemia L1210 cells were grown continuously as a monolayer, using folate-free RPMI medium (FFRPMI) containing 10% heat-inactivated fetal calf serum (HIFCS) at 37° C. in a 5% CO2/95% air-humidified atmosphere with no antibiotics. Syngeneic FR-positive Madison 109 (M109) lung carcinoma cells were generated from M109 tumors and cultured for a few days in FFRPMI containing 10% HIFCS for a few days before implantation in mice. KB cells (1×10^6 per nu/nu mouse), M109 cells (1×10^6 per Balb/c mouse), IGR-OV1 cells (4×10^6 per nu/nu mouse) or OV90 cells (1×10^6 per nu/nu mouse) or L1210 cells (2×10^5 per DBA mouse) in 100 μL were injected in the subcutis of the dorsal medial area. Mice were divided into groups of five, and test articles were freshly prepared and injected through the lateral tail vein under sterile conditions in a volume of 200 μL of phosphate-buffered saline (PBS). Intravenous (i.v.) treatments were typically initiated when the tumors were approximately 100-200 mm^3 in volume. The mice in the control groups received no treatment. Growth of each s.c. tumor was followed by measuring the tumor three times per week during treatment and twice per week thereafter until a volume of 1500 mm^3 was reached. Tumors were measured in two perpendicular directions using Vernier calipers, and their volumes were calculated as 0.5×L×W^2, where L=measurement of longest axis in mm and W=measurement of axis perpendicular to L in mm. As a general measure of toxicity, changes in body weights were determined on the same schedule as tumor volume measurements. Survival of animals was monitored daily. Animals that were moribund (or unable to reach food or water) were euthanized by CO2 asphyxiation. All in vivo studies were performed in accordance with the American Accreditation Association of Laboratory Animal Care guidelines.
(§2) For individual tumors, a partial response (PR) was defined as volume regression >50% but with measurable tumor (>2 mm^3) remaining at all times. Complete response (CR) was defined as a disappearance of measurable tumor mass (<2 mm^3) at some point until the end of the study. A cure was defined as a CR without tumor re-growth within the study time frame.

IGR-OV1 cells [1] = experiment: cells; conditions: Homo sapiens, IGROV-1
OV90 cells [2] = experiment: cells; conditions: Homo sapiens, OV-90
RAW cells = experiment: Cell growth inhibition, RAW cells; format: cell-based; conditions: FIG. 49
M109 tumors = experiment: In vivo antitumor experiments, s.c. M109 tumors; design: species or system Balb/c mice; conditions: five animals per group
Procedure: as §1, §2

KB tumor cells = experiment: Cell growth inhibition (3H-thymidine), KB tumor cells; format: cell-based; conditions: Homo sapiens, FIG. 31, read-out: In vitro cytotoxicity IC50
Procedure: Exponentially growing KB or J6456 cells were seeded in 24-well plates 24 h before treatment with drugs. […] Cells treated with vindesine, DAVLBH or doxorubicin alone were treated for 72 h. A total of five drug concentrations for each drug plus a drug-free control were evaluated. Cells were then treated with fresh medium containing ^3H-thymidine for 2 h at 37° C. Cells were further washed with PBS and treated with ice-cold 5% trichloroacetic acid. After 15 min, the trichloroacetic acid was aspirated and the cells solubilized by the addition of 0.25 N sodium hydroxide for 15 min at room temperature. Each solubilized sample was transferred to scintillation vials containing Ecolume scintillation cocktail and counted in a liquid scintillation counter. […]

OV90 cells [3] = conditions: FIG. 53, EC145 with or without Lapatinib
IGR-OV1 cells [4] = conditions: FIG. 53, EC145 with or without Lapatinib
[5] = FIG. 10, KB tumors 114-177 mm^3, five animals per group, EC145 1 μmol/kg/injection TIW 2 weeks, Irinotecan 40 mg/kg BIW 2 weeks
[6] = FIG. 12, KB tumors 108-222 mm^3, five animals per group, EC145 1 μmol/kg/injection TIW 2 weeks, Avastin 5 mg/kg BIW 2 weeks
[7] = FIG. 14, M109 tumors 86-149 mm^3, EC145 alone 2 μmol/kg/injection TIW 2 weeks (1 μmol/kg in combination), Gemcitabine 40 mg/kg BIW 5 doses
[8] = FIG. 16, M109 tumors 99-164 mm^3, EC145 alone 2 μmol/kg/injection TIW 2 weeks (1 μmol/kg in combination), Tarceva 100 mg/kg qd5 2 weeks

Question: Which results are given for CCc1c2c(nc3ccc(OC(=O)N4CCC(N5CCCCC5)CC4)cc13)-c1cc3c(c(=O)n1C2)COC(=O)[C@]3(O)CC [Irinotecan, irinotecan]?
Answer: Cures (KB tumors; [5]): no; complete responses (KB tumors; [5]): no; partial responses (KB tumors; [5]): no

Question: Which Cures (KB tumors; FIG. 5, KB tumors 144-204 mm^3, five animals per group, EC145 1 μmol/kg/injection TIW 2 weeks, Topotecan 5 mg/kg TIW 2 weeks) does the source give for CC[C@@]1(O)C(=O)OCc2c1cc1n(c2=O)Cc2cc3c(CN(C)C)c(O)ccc3nc2-1 [Topotecan, topotecan] here?
Answer: no

Question: How did the IC50 (IGR-OV1 cells [1]) turn out when CS(=O)(=O)CCNCc1ccc(-c2ccc3ncnc(Nc4ccc(OCc5cccc(F)c5)c(Cl)c4)c3c2)o1 [Lapatinib, lapatinib] was run?
Answer: 1.75 µM

Question: And the IC50 (OV90 cells [2])?
Answer: 2.46 µM

Question: What about the IC50 (RAW cells) of the same molecule?
Answer: 2.85 µM

Question: For bevacizumab [Avastin], which Cures (KB tumors; [6]) is on record?
Answer: no

Question: And the complete responses (KB tumors; [6])?
Answer: no

Question: What about the partial responses (KB tumors; [6]) of the same molecule?
Answer: no

Question: How did the partial responses (KB tumors; FIG. 1, KB tumors 109-188 mm^3, five animals per group, EC145 1 μmol/kg/injection TIW 2 weeks, Carboplatin 50 mg/kg TIW 1 week) turn out when N.N.O=C([O-])C1(C(=O)[O-])CCC1.[Pt+2] [Carboplatin, carboplatin] was run?
Answer: 3

Question: For CC[C@]1(O)C[C@@H]2CN(CCc3c([nH]c4ccccc34)[C@@](C(=O)OC)(c3cc4c(cc3OC)N(C)[C@H]3[C@@](O)(C(=O)NN)[C@H](O)[C@]5(CC)C=CCN6CC[C@]43[C@@H]65)C2)C1 [DAVLBH, desacetylvinblastine hydrazide], which “effect of unconjugated DAVLBH on Doxil activity” value (KB tumors; FIG. 27, DAVLBH 0.75 μmol/kg/injection TIW 2 weeks + DOXIL 5 mg/kg BIW 2 weeks) is on record?
Answer: antagonizes Doxil activity

Question: How did the Cures (M109 tumors; [7]) turn out when Nc1ccn([C@@H]2O[C@H](CO)[C@@H](O)C2(F)F)c(=O)n1 [Gemcitabine, gemcitabine] was run?
Answer: no

Question: And the complete responses (M109 tumors; [7])?
Answer: no

Question: And the partial responses (M109 tumors; [7])?
Answer: no

Question: COc1cccc2c1C(=O)c1c(O)c3c(c(O)c1C2=O)C[C@@](O)(C(=O)CO)C[C@@H]3O[C@H]1C[C@H](N)[C@H](O)[C@H](C)O1 [Doxorubicin, doxorubicin] was tested. Which IC50 (KB tumor cells) did it give?
Answer: 0.034 µM

Question: How did the IC50 (OV90 cells [3]) turn out when CC[C@]1(O)C[C@H]2CN(CCc3c([nH]c4ccccc34)[C@@](C(=O)OC)(c3cc4c(cc3OC)N(C)[C@H]3[C@@](O)(C(=O)NNC(=O)OCCSSC[C@H](NC(=O)[C@H](CC(=O)O)NC(=O)[C@H](CC(=O)O)NC(=O)[C@H](CCCNC(=N)N)NC(=O)[C@H](CC(=O)O)NC(=O)CC[C@H](NC(=O)c5ccc(NCc6cnc7nc(N)[nH]c(=O)c7n6)cc5)C(=O)O)C(=O)O)[C@H](O)[C@]5(CC)C=CCN6CC[C@]43[C@@H]65)C2)C1 [EC145] was run?
Answer: 0.329 µM

Question: And the complete responses (KB tumors; mouse, in vivo)?
Answer: 0

Question: What about the IC50 (IGR-OV1 cells [4]) of the same molecule?
Answer: 0.00358 µM

Question: And the Cures (M109 tumors; [7])?
Answer: 2

Question: And the complete responses (M109 tumors; [7])?
Answer: 0

Question: What about the partial responses (M109 tumors; [7]) of the same molecule?
Answer: 0

Question: And the Cures (M109 tumors; [8])?
Answer: 0

Question: And the complete responses (M109 tumors; [8])?
Answer: 0

Question: What about the partial responses (M109 tumors; [8]) of the same molecule?
Answer: 0

Question: And the Cures (M109 tumors; FIG. 40, M109 tumors, EC145 1 μmol/kg/injection TIW 2 weeks, DOXIL 4 mg/kg BIW 2 weeks)?
Answer: 3/5 and 3

Question: CC[C@]1(O)C[C@@H]2CN(CCc3c([nH]c4ccccc34)[C@@](C(=O)OC)(c3cc4c(cc3OC)N(C)[C@H]3[C@@](O)(C(N)=O)[C@H](O)[C@]5(CC)C=CCN6CC[C@]43[C@@H]65)C2)C1 [vindesine] was tested. Which “effect of unconjugated vindesine on Doxil activity” value (KB tumors; FIG. 25/26, vindesine 1 mg/kg/injection TIW 2 weeks + DOXIL 5 mg/kg BIW 2 weeks) did it give?
Answer: antagonizes Doxil activity

Question: How did the partial responses (KB tumors; mouse, in vivo) turn out when N.N.[Cl][Pt][Cl] [Cisplatin, cisplatin] was run?
Answer: 2

Question: C#Cc1cccc(Nc2ncnc3cc(OCCOC)c(OCCOC)cc23)c1 [Tarceva, erlotinib] was tested. Which Cures (M109 tumors; [8]) did it give?
Answer: no

Question: What about the complete responses (M109 tumors; [8]) of the same molecule?
Answer: no

Question: And the partial responses (M109 tumors; [8])?
Answer: no
